Counter-ions that a name gives are not always drawn.
Key:
MCR1 = biological target: T1, MCR1 (Homo sapiens, UniProt Q01726); test: Radiobinding assay with [125I]-NDP-a-MSH after drug incubation; format: cell-based; details: SK-MEL3 and A2058 BRAF^V600E, 4 hours incubation, relative to untreated controls
T1 construct: endogenous in cells; host or cells: SK-MEL3 BRAF V600E and A2058 BRAF V600E human melanoma cells
Method: FIGS. 11A-11D. MCR1 expression can be enhanced in human melanoma cells by incubation with PBA and FDA approved melanoma drugs. (A-B) Flow cytometry analysis of MC1R expression in human melanoma cells: (A) SK-MEL3 BRAF^V600E; (B) A2058 BRAF^V600E; incubated for 4 hours with clinically-relevant concentrations of BRAFi: PLX4032 (10 μM), GSK2118436 (2 μM); MEKi: GDC0973 (2 μM), GSK1120212 (2 μM); 4-PBA (4 mM). Cells were stained with anti-MC1R-phycoerythrin (PE) monoclonal antibody conjugate. Fluorescence intensity was corrected by PE-conjugated isotype. Data were expressed as normalized mean fluorescence intensity (NMFI; n=4±SD; *p<0.05). […] (C) SK-MEL3 BRAF^V600E; and (D) A2058 BRAF^V600E was confirmed by radiobinding assay using MCR1-specific peptide [^125I]-NDP-a-MSH following incubation for 4 hours with PBA and FDA approved drugs (as in FIG. 10). […] Binding expressed as radioactivity bound relative to untreated controls (same cells) (n=4±SD; *p<0.05).
PCR measurements give information on the cellular response to drug treatments, but competitive binding assays convey a specific measure of changes in receptor expression (protein level) and changes in ligand-binding interactions as a result of drug treatments (FIGS. 11A-11B). After drug treatments, receptor expression is determined using synthetic α-MSH analog [^125I]-Nle^4-D-Phe^7-alpha-MSH ([^125I]-NDP-MSH) routinely as in FIG. 16D. […]

MCR1 expression = test: Flow cytometry analysis of MCR1 expression in malignant melanoma cells; format: cell-based, human; details: BRAF^V600E mutant melanoma cell lines (A2058, A375), 3 mmole 4-PBA, 4 h and 24 h
Method: FIG. 1: Flowcytometry analysis of MCR1 expression in A375 malignant melanoma cells. A375 cells were treated with either 2 μmole Vemurafenib or 3 mmole 4-PBA for 4 h and 24 h (n=3). The treated and untreated (control) cells were stained with anti-MC1R-phycoerythrin (PE) monoclonal antibody conjugate. Fluorescence intensity was corrected by auto-fluorescence of cells without staining and data were expressed as relative (vs control) fluorescence intensity±SD. Statistical significance was determined by Student's T-test (*P<0.05; **P<0.01; ***P<0.001; ****P<0.0001).
(§1) FIG. 2: Flowcytometry analysis of MCR1 expression in A2058 malignant melanoma cells. […] Fluorescence intensity was corrected by auto-fluorescence of cells without staining and data were expressed as relative (vs control) fluorescence intensity±SD. Statistical significance was determined by Student's T-test (*P<0.05; **P<0.01; ***P<0.001; ****P<0.0001).
as §1, with “3:” for “2:”, “SK-Me13” for “A2058”, “****P<0.0001, N. S. non-significant).” for “****P<0.0001).”
FIGS. 11A-11D. […] Fluorescence intensity was corrected by PE-conjugated isotype. […]

[1] = PBA co-administration: kidney and tumor uptake of [203Pb]DOTA-MCR1; format: in vivo, mice; details: PBA 120 mg/kg co-administered i.v. or i.p., 2 h p.i.
Method: FIGS. 14A-14B. […] Results are ID %/g tissue±SD; **P<0.01; ****P<0.0001. (B Right) Pre-administered of PBA (i.p. 60 mg/kg) and BRAFi (vemurafenib; p.o. 5 mg/kg) 3 h prior to tail vein injection of 13 MBq [^203Pb]DOTA-MCR1 in human (A2058) melanoma-bearing athymic nu/nu mice (SPECT image 1 h p.i.); (B Left) An identical animal was administered an identical dose of [^203Pb]DOTA-MCR1 without PBA/BRAFi (saline). Images were identically processed and analyzed using Inveon Workplace software (identical contrast, intensity, etc.).
PBA relieves ER-stress through nonspecific binding to misfolded proteins in the ER. Thus, it was hypothesized that co-injection could inhibit peptide uptake in kidneys in the same fashion as amino acid co-infusions used clinically. This is reasonable because the megalin-cubulin system for reuptake and recirculation of nutrients in the proximal and distal tubules involves nonspecific binding and endocytosis of proteins, amino acids, and nutrients. results support the hypothesis that co-injection of PBA can serve to reduce kidney accumulation of radiopeptides in the kidneys (FIGS. 14A-B).

O=C(O)CCCc1ccccc1 [PBA, 4-phenylbutyric acid, sodium salt]
binding of MCR1-specific peptide [125I]-NDP-a-MSH (MCR1): increases binding of MCR1-specific peptides
time dependency of MCR1 expression (MCR1 expression): significant (time dependent) increase in MCR1 expression
kidney uptake of [203Pb]DOTA-MCR1 [1]: significantly blocked kidney uptake
tumor accumulation of [203Pb]DOTA-MCR1 [1]: did not affect tumor accumulation
